For this experiment, the target named is Histone deacetylase 8 (Homo sapiens) (UniProt Q9BY41). The experiment can be described thus: Inhibition of human recombinant HDAC8 using RHKAcKAc-AMC substrate by fluorescence based assay.

Molecules are shown by their SMILES.

Chain of Histone deacetylase 8 (Homo sapiens) (Q9BY41 whole entry, looked up): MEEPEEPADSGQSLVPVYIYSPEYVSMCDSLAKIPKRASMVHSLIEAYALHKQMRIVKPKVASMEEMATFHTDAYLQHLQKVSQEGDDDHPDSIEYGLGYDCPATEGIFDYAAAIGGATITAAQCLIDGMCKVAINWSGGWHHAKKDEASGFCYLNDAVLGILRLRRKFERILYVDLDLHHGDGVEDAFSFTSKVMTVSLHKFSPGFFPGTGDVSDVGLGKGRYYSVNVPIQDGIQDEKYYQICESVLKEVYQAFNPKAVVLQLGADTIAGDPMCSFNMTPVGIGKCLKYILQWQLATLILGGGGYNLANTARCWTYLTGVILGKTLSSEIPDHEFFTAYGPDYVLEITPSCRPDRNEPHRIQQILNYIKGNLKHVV

For `O=c1c2ccccc2[se]n1-c1ccccc1` [2-Phenyl-benzo[d]isoselenazol-3-one], the IC50 was 1200 nM.

Source of the values: BindingDB's records for doi:10.1021/acs.jmedchem.9b01152 (Universidad De Navarra, 2020).
